Source: US5574161A, “7-(aminomethyl-oxa-7-aza-bicyclo[3.3.0]oct-7-yl)quinolonecarboxylic and 7-(aminomethyl-oxa-7-aza-bicyclo[3.3.0]oct-7-yl naphthyridonecarboxylic acid derivatives” (Bayer Aktiengesellschaft, priority 1992, dated 1996)

Experiments:
Format in all cases: cell-based
Providencia sp. 12012 = assay: MIC, agar serial dilution, Providencia sp. 12012; details: Iso-Sensitest agar, 37° C., about 20 hours
Protocol: (§1) The minimum inhibitory concentrations (MIC) were determined by means of serial dilution methods on Iso-Sensitest agar (Oxoid). For each substance to be tested, a series of agar plates was prepared which contained concentrations of the active compound which in each case decreased by a doubling dilution. The agar plates were inoculated with a Multipoint inoculator (Denley). For the inoculation, overnight cultures of the pathogens were used which had previously been diluted so that each inoculation spot contained about 10^4 colony-forming particles. The inoculated agar plates were incubated at 37° C. and the organism growth was recorded after about 20 hours. The MIC value (μg/ml) indicates the lowest concentration of active compound at which no growth was detected with the naked eye.
(§2) In the table below, the MIC values of some of the compounds according to the invention are listed in comparison with 1-cyclopropyl-6,8-difluoro-1,4-dihydro-7-(cis-2-oxa-5,8-diazabicyclo[4.3.0]non-8-yl)-4-oxo-3-quinoline-carboxylic acid hydrochloride (reference example A) and 8-chloro-1-cyclopropyl-6-fluoro-1,4-dihydro-7-(cis-2-oxa-5,8-diazabicyclo[4.3.0]non-8-yl)-4-oxo-3-quinoline-carboxylic acid hydrochloride (reference example B).

[1] = test system: Enterobacter aerog. ICB 5240; assay: MIC, agar serial dilution, Enterobacter aerog. ICB 5240; details: Iso-Sensitest agar, 37° C., about 20 hours
Protocol: as §1, §2

[2] = test system: Staphylococcus aureus ICB 25701; assay: MIC, agar serial dilution, Staphylococcus aureus ICB 25701; details: ICB25701, Iso-Sensitest agar, 37° C., about 20 hours
Protocol: as §1, §2

[3] = test system: Staphylococcus aureus 1756; assay: MIC, agar serial dilution, Staphylococcus aureus 1756; details: Iso-Sensitest agar, 37° C., about 20 hours
Protocol: as §1, §2

Morganella morganii 932 = assay: MIC, agar serial dilution, Morganella morganii 932; details: Iso-Sensitest agar, 37° C., about 20 hours
Protocol: as §1, §2

Escherichia coli 455/7 = assay: MIC, agar serial dilution, Escherichia coli 455/7; details: Iso-Sensitest agar, 37° C., about 20 hours
Protocol: as §1, §2

[4] = test system: Staphylococcus aureus 133; assay: MIC, agar serial dilution, Staphylococcus aureus 133; details: Iso-Sensitest agar, 37° C., about 20 hours
Protocol: as §1, §2

[5] = test system: Enterococcus faecalis 27101; assay: MIC, agar serial dilution, Enterococcus faecalis 27101; details: Iso-Sensitest agar, 37° C., about 20 hours
Protocol: as §1, §2

[6] = test system: Klebsiella pneumoniae 8085; assay: MIC, agar serial dilution, Klebsiella pneumoniae 8085; details: Iso-Sensitest agar, 37° C., about 20 hours
Protocol: as §1, §2

Micrococcus luteus 9341 = assay: MIC, agar serial dilution, Micrococcus luteus 9341; details: Iso-Sensitest agar, 37° C., about 20 hours
Protocol: as §1, §2

[7] = test system: Enterococcus faecalis 9790; assay: MIC, agar serial dilution, Enterococcus faecalis 9790; details: Iso-Sensitest agar, 37° C., about 20 hours
Protocol: as §1, §2

[8] = test system: Pseudomonas aeruginosa ICB 308029; assay: MIC, agar serial dilution, Pseudomonas aeruginosa ICB 308029; details: ICB308029, Iso-Sensitest agar, 37° C., about 20 hours
Protocol: as §1, §2

[9] = test system: Enterobacter cloacae 2427; assay: MIC, agar serial dilution, Enterobacter cloacae 2427; details: Iso-Sensitest agar, 37° C., about 20 hours
Protocol: as §1, §2

MIC (Providencia sp. 12012) [µg/mL]	MIC [1] [µg/mL]	MIC [2] [µg/mL]	MIC [3] [µg/mL]	MIC (Morganella morganii 932) [µg/mL]	MIC (Escherichia coli 455/7) [µg/mL]	MIC [4] [µg/mL]	MIC [5] [µg/mL]	MIC [6] [µg/mL]	MIC (Micrococcus luteus 9341) [µg/mL]	MIC [7] [µg/mL]	MIC [8] [µg/mL]	MIC [9] [µg/mL]	Structure (SMILES)
0.125	32	2	0.06	0.125	4	0.06	0.25	0.06	0.5	0.25	64	0.125	Cl.O=C(O)c1cn(C2CC2)c2c(F)c(N3C[C@@H]4NCCO[C@@H]4C3)c(F)cc2c1=O (relative stereo) [A, 1-cyclopropyl-6,8-difluoro-1,4-dihydro-7-(cis-2-oxa-5,8-diazabicyclo[4.3.0]non-8-yl)-4-oxo-3-quinoline-carboxylic acid hydrochloride]
0.06	16	0.5	0.015	0.06	2	0.03	0.125	0.06	0.25	0.125	64	0.25	Cl.O=C(O)c1cn(C2CC2)c2c(Cl)c(N3C[C@@H]4NCCO[C@@H]4C3)c(F)cc2c1=O (relative stereo) [B, 8-chloro-1-cyclopropyl-6-fluoro-1,4-dihydro-7-(cis-2-oxa-5,8-diazabicyclo[4.3.0]non-8-yl)-4-oxo-3-quinoline-carboxylic acid hydrochloride]
0.06	8	1	≤ 0.015	0.03	2	0.06	0.06	0.06	0.25	0.125	16	0.06	Cl.NCC12CN(c3c(F)cc4c(=O)c(C(=O)O)cn(C5CC5)c4c3F)CC1CCO2 (stereo not shown) [Example 1B, 7-(1-aminomethyl-2-oxa-7-aza-bicyclo[3.3.0]oct-7-yl) -1-cyclopropyl-6,8-difluoro-1,4-dihydro-4-oxo-3-quinolinecarboxylic acid hydrochloride]
0.03	8	0.25	0.0039	0.03	1	0.015	0.03	0.03	0.125	0.06	32	0.06	NCC12CN(c3c(F)cc4c(=O)c(C(=O)O)cn(C5CC5)c4c3Cl)CC1CCO2.O=C(O)C(F)(F)F (stereo not shown) [Example 2B, 7-(1-aminomethyl-2-oxa-7-aza-bicyclo[3.3.0]oct-7-yl)-8-chloro-1-cyclopropyl-6-fluoro-1,4-dihydro-4-oxo-3-quinolinecarboxylic acid trifluoroacetate]
